From US7700593B2, “Imidazo- and triazolo-pyridine compounds and methods of use thereof” (Amgen Inc., priority 2006, dated 2010)

Legend:
p38α = p38α (Homo sapiens, UniProt Q16539); assay: p38 in-vitro HTRF enzyme assay; type: biochemical; conditions: IC50 value ranges
Method: p38 In-Vitro HTRF Enzyme Assay
The compounds of the invention can be tested for their respective affinities for the p38 protein using a conventional p38 in-vitro enzyme activity assay. For example, a P38-alpha HTRF assay may be used to measure the protein's in-vitro phosphorylation activity, and the data analyzed using time resolved fluorimetry techniques (FRET). A p38 HTRF assay is as follows. The kinase reaction buffer for p38α, p38β, p38δ and p38γ HTRF assays consists of 50 mM Tris-pH 7.5, 5 mM MgCl2, 0.1 mg/mL BSA, 100 μM Na3VO4 and 0.5 mM DTT. The HTRF detection buffer contains 100 mM HEPES-pH 7.5, 100 mM NaCl, 0.1% BSA, 0.05% Tween-20, and 10 mM EDTA. Each compound was dissolved in 100% DMSO and serially diluted (3 fold, 10 point) in a polypropylene 96-well microtiter plate (drug plate). The final starting concentration of the compound in the p38α and p38β enzymatic assays was about 1 μM. The final starting concentration of each compound in the p38δ and p38γ enzymatic assays was about 10 μM. The p38α, p38β, p38δ and p38γ kinase reactions were carried out in a polypropylene 96-well black round bottom assay plate in total volume of 30 μL kinase reaction buffer. Appropriate concentration of purified and activated enzyme (recombinant human) was mixed with indicated concentration of ATP and 100 nM GST-ATF2-Avitag, in the presence or absence (HI control) of each compound. In the absence of enzyme, the background was measured as LO control. HI controls and LO controls contained only DMSO. The reaction was allowed to incubate for 1 hour at RT. […] After 60 minutes incubation at room temperature, the assay plate was read in a Discovery Plate Reader. The wells were excited with coherent 320 nm light and the ratio of delayed ([…] post excitation) emissions at […] (native europium fluorescence) and 665 nm (europium fluorescence transferred to allophycocyanin—an index of substrate phosphorylation) was determined (Park et al, 1999). The resulting data was analyzed by taking the proportion of substrate phosphorylated in the kinase reaction in the presence of each individual compound and comparing it with that phosphorylated in the presence of DMSO vehicle alone (HI control). The data was calculated using the formula: % control (POC)=(compound−average LO)/(average HI−average LO)*100. Data (consisting of POC and inhibitor concentration in μM) was fitted to a 4-parameter equation (y=A+((B−A)/(1+((x/C)^D))), where A is the minimum y (POC) value, B is the maximum y (POC), C is the x (compound concentration) at the point of inflection and D is the slope factor, using a Levenburg-Marquardt non-linear regression algorithm. The inhibition constant (Ki) of the inhibitor was estimated from the IC50 (compound concentration at the point of inflection C) using the Cheng-Prussof equation: Ki=IC50/(1+S/Km), where S is the ATP substrate concentration, and Km is the Michaelis constant for ATP as determined experimentally. All results were expressed as the mean±the standard error of the mean. Data acquisition and non-linear regression algorithms were performed using Activity Base v5.2 and XLfit software v4.1 respectively. Additional assay information may be obtained in Park Y W, Cummings R T, Wu L, et al. Homogeneous Proximity Tyrosine Kinase Assays Scintillation Proximity Assay versus Homogeneous Time-Resolved Fluorescence. Analytical Biochemistry. 1999; 269: 94-104.

THP1 cells = assay: Lipopolysaccharide-activated THP1 cell TNF production assay; type: cell-based, human; conditions: Homo sapiens, THP-1; LPS-induced TNF-α production in THP1 cells
Method: Lipopolysaccharide-Activated THP1 Cell TNF Production Assay
THP1 cells are resuspended in fresh THP1 media (RPMI 1640, 10% heat-inactivated FBS, 1×PGS, 1×NEAA, plus 30 μM βME) at a concentration of 1E6/mL. One hundred microliters of cells per well are plated in a polystyrene 96-well tissue culture. One microgram per mL of bacterial LPS is prepared in THP1 media and is transferred to the wells. Test compounds are dissolved in 100% DMSO and are serially diluted 3-fold in a polypropylene 96-well microtiter plate (drug plate). HI control and LO control wells contain only DMSO. One microliter of test compound from the drug plate followed by 10 μL of LPS are transferred to the cell plate. The treated cells are induced to synthesize and secrete TNF-α at 37° C. for 3 h. Forty microliters of conditioned media are transferred to a 96-well polypropylene plate containing 110 μL of ECL buffer (50 mM Tris-HCl pH 8.0, 100 mM NaCl, 0.05% Tween 20, 0.05% NaN3 and 1% FBS) supplemented with 0.44 nM MAB610 monoclonal Ab (R&D Systems), 0.34 nM ruthenylated AF210NA polyclonal Ab (R&D Systems) and 44 μg/mL sheep anti-mouse M280 Dynabeads (Dynal). After a 2 h incubation at room temperature with shaking, the reaction is read on the ECL M8 Instrument (IGEN Inc.). A low voltage is applied to the ruthenylated TNF-α immune complexes, which in the presence of TPA (the active component in Origlo), results in a cyclical redox reaction generating light at […]. The amount of secreted TNF-α in the presence of compound compared with that in the presence of DMSO vehicle alone (HI control) is calculated using the formula: % control (POC)=(cpd−average LO)/(average HI−average LO)*100. Data (consisting of POC and inhibitor concentration in μM) is fitted to a 4-parameter equation (y=A+((B−A)/(1+((x/C)^D))), where A is the minimum y (POC) value, B is the maximum y (POC), C is the x (cpd concentration) at the point of inflection and D is the slope factor) using a Levenburg-Marquardt non-linear regression algorithm.

monocytes = assay: Lipopolysaccharide-activated monocyte TNF production assay (LPS induced TNF release); type: cell-based, human; conditions: Homo sapiens, Monocyte; LPS induced TNF release from monocytes; read-out: LPS induced TNFa
Method: Lipopolysaccharide-Activated Monocyte TNF Production Assay
Test compounds were evaluated in vitro for the ability to inhibit the production of TNF by monocytes activated with bacterial lipopolysaccharide (LPS). Fresh residual source leukocytes (a byproduct of plateletpheresis) were obtained from a local blood bank, and peripheral blood mononuclear cells (PBMCs) were isolated by density gradient centrifugation on Ficol-Paque Plus (Pharmacia). PBMCs were suspended at 2×10^6/mL in DMEM supplemented to contain 2% FCS, 10 mM, 0.3 mg/mL […], 100 U/mL penicillin G and […] streptomycin sulfate (complete media). Cells were plated into Falcon flat bottom, 96 well culture plates (200 μL/well) and cultured overnight at 37° C. and 6% CO2. Non-adherent cells were removed by washing with 200 μl/well of fresh medium. Wells containing adherent cells (˜70% monocytes) were replenished with 100 μL of fresh medium.
Preparation of Test Compound Stock Solutions
Test compounds were dissolved in […]. Compound stock solutions were prepared to an initial concentration of […]. Stocks were diluted initially to […] in complete media. Nine two-fold serial dilutions of each compound were then prepared in complete medium.
Treatment of Cells with Test Compounds and Activation of TNF Production with Lipopolysaccharide
One hundred microliters of each test compound dilution were added to microtiter wells containing adherent monocytes and 100 μL complete medium. Monocytes were cultured with test compounds for 60 min at which time 25 μL of complete medium containing 30 ng/mL lipopolysaccharide from E. coli K532 were added to each well. Cells were cultured an additional 4 hrs. Culture supernatants were then removed and TNF presence in the supernatants was quantified using an ELISA.
Flat bottom, 96 well Corning High Binding ELISA plates were coated overnight (4° C.) with 150 μL/well of 3 μg/mL murine anti-human TNF-α MAb (R&D Systems #MAB210). Wells were then blocked for 1 h at room temperature with 200 μL/well of CaCl2-free ELISA buffer supplemented to contain 20 mg/mL BSA (standard ELISA buffer: […], 150 mM NaCl, 2 mM CaCl2, 0.15 mM thimerosal, pH 7.4). Plates were washed and replenished with 100 μL of test supernatants (diluted 1:3) or standards. Standards consisted of eleven 1.5-fold serial dilutions from a stock of 1 ng/mL recombinant human TNF (R&D Systems). Plates were incubated at room temperature for 1 h on orbital shaker (300 rpm), washed and replenished with 100 μL/well of 0.5 μg/mL goat anti-human TNF-α (R&D systems #AB-210-NA) biotinylated at a 4:1 ratio. Plates were incubated for 40 min, washed and replenished with 100 μL/well of alkaline phosphatase-conjugated streptavidin (Jackson ImmunoResearch #016-050-084) at 0.02 μg/mL. Plates were incubated 30 min, washed and replenished with 200 μL/well of 1 mg/mL of p-nitrophenyl phosphate.
Standard curve data were fit to a second order polynomial and unknown TNF-α concentrations determined from their OD by solving this equation for concentration. TNF concentrations were then plotted vs. test compound concentration using a second order polynomial. This equation was then used to calculate the concentration of test compounds causing a 50% reduction in TNF production.

Sequence of p38α (Q16539 whole entry): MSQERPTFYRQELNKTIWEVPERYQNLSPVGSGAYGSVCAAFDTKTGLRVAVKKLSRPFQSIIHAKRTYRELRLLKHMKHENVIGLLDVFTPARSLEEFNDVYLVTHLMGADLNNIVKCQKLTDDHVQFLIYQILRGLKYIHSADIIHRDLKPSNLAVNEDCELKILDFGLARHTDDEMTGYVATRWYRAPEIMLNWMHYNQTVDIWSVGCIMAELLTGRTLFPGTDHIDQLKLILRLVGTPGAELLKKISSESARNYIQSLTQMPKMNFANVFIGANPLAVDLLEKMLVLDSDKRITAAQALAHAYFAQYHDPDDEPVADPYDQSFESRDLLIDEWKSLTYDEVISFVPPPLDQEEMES

| IC50 (p38α) [µM] | IC50 (THP1 cells) [µM] | IC50 (monocytes) [µM] | Compound |
| --- | --- | --- | --- |
| – | 0.025 to 0.1 | 0.1 to 0.25 | Cc1ccc(C(=O)NC2CC2)cc1-c1ccn2c(C(C)(C)C)nnc2c1C [Example 77, N-cyclopropyl-3-(3-(1,1-dimethylethyl)-8-methyl[1,2,4]triazolo[4,3-a]pyridin-7-yl)-4-methylbenzamide] |
| < 0.025 | – | – | Cc1ccc(C(=O)NC2CC2)cc1-c1ccn2c(-c3c(C)cccc3F)nnc2c1 [Example 84, N-cyclopropyl-3-(3-(2-fluoro-6-methylphenyl)[1,2,4]triazolo[4,3-a]pyridin-7-yl)-4-methylbenzamide] |
| < 0.025 | – | – | COc1ccccc1-c1nnc2cc(-c3cc(C(=O)NC4CC4)ccc3C)ccn12 [Example 85, N-cyclopropyl-4-methyl-3-(3-(2-(methyloxy)phenyl)[1,2,4]triazolo[4,3-a]pyridin-7-yl)benzamide] |
| – | 0.025 to 0.1 | 0.1 to 0.25 | Cc1ccc(C(=O)NC2CC2)cc1-c1ccn2c([C@@H](C)C(F)(F)F)nnc2c1 [Example 87, N-cyclopropyl-4-methyl-3-(3-((1R)-2,2,2-trifluoro-1-methylethyl)[1,2,4]triazolo[4,3-a]pyridin-7-yl)benzamide] |
| – | 0.25 to 1 | 1 to 5 | Cc1ccc(C(=O)NC2CC2)cc1-c1ccn2c(N3CCNC3=O)nnc2c1 [Example 100, N-cyclopropyl-4-methyl-3-(3-(2-oxo-1-imidazolidinyl)[1,2,4]triazolo[4,3-a]pyridin-7-yl)benzamide] |

The remaining lines, values behind:

| Compound | IC50 (p38α) [µM] | IC50 (THP1 cells) [µM] | IC50 (monocytes) [µM] |
| --- | --- | --- | --- |
| Cc1ccc(C(=O)Nc2ccnn2C)cc1-c1ccn2c(C3(C(F)(F)F)CC3)nnc2c1 [Example 20, 4-methyl-N-(1-methyl-1H-pyrazol-5-yl)-3-(3-(1-(trifluoromethyl)cyclopropyl)[1,2,4]triazolo[4,3-a]pyridin-7-yl)benzamide] | < 0.025 | < 0.025 | – |
| Cc1ccc(C(=O)NC2CC2)cc1-c1ccn2c(-c3c(F)cccc3F)nnc2c1 [Example 65, N-cyclopropyl-3-(3-(2,6-difluorophenyl)[1,2,4]triazolo[4,3-a]pyridin-7-yl)-4-methylbenzamide] | – | < 0.025 | < 0.025 |
| Cc1cc(F)c(C(=O)NC2CC2)cc1-c1ccn2c(-c3sccc3C)nnc2c1 [Example 67, N-cyclopropyl-2-fluoro-4-methyl-5-(3-(3-methyl-2-thienyl)[1,2,4]triazolo[4,3-a]pyridin-7-yl)benzamide] | – | 0.025 to 0.1 | 0.1 to 0.25 |
| Cc1cc(F)c(C(=O)Nc2ccnn2C)cc1-c1ccn2c(-c3sccc3C)nnc2c1 [Example 68, 2-fluoro-4-methyl-N-(1-methyl-1H-pyrazol-5-yl)-5-(3-(3-methyl-2-thienyl)[1,2,4]triazolo[4,3-a]pyridin-7-yl)benzamide] | – | < 0.025 | 0.1 to 0.25 |
| Cc1cc(F)c(C(=O)Nc2ccnn2C)cc1-c1ccn2c(-c3ccccc3Cl)nnc2c1 [Example 71, 5-(3-(2-chlorophenyl)[1,2,4]triazolo[4,3-a]pyridin-7-yl)-2-fluoro-4-methyl-N-(1-methyl-1H-pyrazol-5-yl)benzamide] | – | 0.025 to 0.1 | 0.1 to 0.25 |
| Cc1cc(F)c(C(=O)NC2CC2)cc1-c1ccn2c(-c3c(F)cccc3Cl)nnc2c1 [Example 72, 5-(3-(2-chloro-6-fluorophenyl)[1,2,4]triazolo[4,3-a]pyridin-7-yl)-N-cyclopropyl-2-fluoro-4-methylbenzamide] | – | 0.025 to 0.1 | 0.025 to 0.1 |
| Cc1cc(F)c(C(=O)Nc2ccnn2C)cc1-c1ccn2c(-c3c(F)cccc3Cl)nnc2c1 [Example 73, 5-(3-(2-chloro-6-fluorophenyl)[1,2,4]triazolo[4,3-a]pyridin-7-yl)-2-fluoro-4-methyl-N-(1-methyl-1H-pyrazol-5-yl)benzamide] | – | < 0.025 | 0.025 to 0.1 |
| Cc1c(F)cc(C(=O)NC2CC2)cc1-c1ccn2c(C(C)(C)C)nnc2c1C [Example 76, N-cyclopropyl-3-(3-(1,1-dimethylethyl)-8-methyl[1,2,4]triazolo[4,3-a]pyridin-7-yl)-5-fluoro-4-methylbenzamide] | – | 0.025 to 0.1 | 0.1 to 0.25 |
